Data: patent US20260286287A1, “NOVEL BACTERIAL STRAIN USEFUL FOR TREATING CUTANEOUS INFLAMMATION” (PIERRE FABRE DERMO-COSMETIQUE, priority 2023, published 2026)

Columns and labels:
[1] = tested on: normal human epidermal keratinocytes (NHEK) stimulated by an inflammatory cytokine mix (IL-4+IL-13+IL-22+TNF-α); test: Gene expression (RT-qPCR) in cytokine-stimulated normal human epidermal keratinocytes, in vitro model of chronic atopic dermatitis; type: cell-based
Procedure: The effects of the bacterial extracts prepared in example 3 (i.e., L0, BL0, S0 and ES0) on gene expression were assessed with normal human epidermal keratinocytes (NHEK) which have been stimulated by an inflammatory cytokine mix (IL-4+IL-13+IL-22+TNF-α), a particularly useful model representative of the chronic phase of atopic dermatitis.
Keratinocytes were seeded in 24-well plates and grown for 24 hours in growth medium with culture conditions at 37° C. and 5% C02. The growth medium comprised Keratinocyte SFM (Serum Free Medium) supplemented with Epidermal Growth Factor (EGF) 0.25 ng/ml, Pituitary extract (PE) 25 μg/ml and Gentamycin 25 μg/ml. The medium was then removed and replaced by assay medium containing either no added extract or compound (negative control), one of the bacterial extracts of example 3 (L0, BL0, S0 or ES0), or the reference compound (JAK Inhibitor | at 10 μM). Cells were then pre-incubated for 24 hours. The assay medium comprised Keratinocyte SFM supplemented with Gentamycin 25 μg/ml.
After pre-incubation, the assay medium was renewed, the mix of cytokines (IL-4+IL-13+TNF-α +IL-22, each at 10 ng/ml) added and the cells then incubated for 24 hours. Cytokine stimulation induces a phenotype in NHEK which is similar to the one observed during the chronic phase of atopic dermatitis (Bernard et al., 2012). In parallel, non-stimulated controls are performed.
All experiments were performed in triplicate (n=3).
Cells from the replicates of the same experimental condition were pooled.
Total RNA was extracted with TriPure Isolation Reagent® (Roche Molecular System Inc.) according to the supplier's instruction. The complementary DNA (cDNA) was synthetised by reverse transcription of total RNA in presence of oligo (dT) and Transcriptor Reverse Transcriptase (Roche Molecular System Inc.).
RT-qPCR (real time quantitative PCR) was used to analyse the expression of markers in total RNA extracted from the cell monolayers of each experimental condition. The LightCycler® system (Roche Molecular System Inc.) was used according to the supplier's instruction,
Two reference genes (GAPDH and RPS28) were used in the PCR array for data normalisation because of their constitutive expression. Consequently, the level of expression of the target markers was compared to the mean expression level of these 2 markers for all test conditions.
Different genes markers are reported: • barrier function, differentiation, lipid and desquamation markers: coding gene of Small Proline Rich Protein 1B (SPRR1B), coding gene of Kallikrein Related Peptidase 7 (KLK7), coding gene of Involucrin (IVL), coding gene of Caspase 14 (CASP14), coding gene of Sciellin (SCEL) and coding gene of sulfotransferase family, cytosolic, 2B, member 1 (SULT2B1); • antimicrobial and innate immunity markers: coding gene of serpin peptidase inhibitor, clade B, member 13 (SERPINB13), coding gene of calcium binding protein A7 (S100A7), coding gene of Toll-like receptor 2 (TLR2); • inflammation markers: coding gene of Chemokine (C-C motif) ligand 5 (CCL5), coding gene of Chemokine (C-C motif) ligand 27 (CCL27) and coding gene of interleukin 13 receptor, alpha 2 (IL13RA2).

bacterial strain LMB275 = test: Sensitivity of the bacterial strain to antibiotics, disc diffusion method; type: cell-based, Aquabacterium strain LMB275; details: modified R2A agar, 48 and 72 h at 30° C.
Procedure: The sensitivity of the bacterial strain to antibiotics was tested by the disc diffusion method after spreading cell suspensions (8.0 McFarland) on modified R2A agar plates. The antibiotics and their concentration used on filter-paper discs for the susceptibility assay are listed in the species definition. The effect of antibiotics on cell growth was assessed after 48 and 72 h at 30° C.

[2] = NHEK, cytokine mix 10 ng/ml + JAK inhibitor I 10 μM, Mean HK normalisation
[3] = NHEK, cytokine mix 10 ng/ml + JAK inhibitor I 10 μM, Mean HK normalisation, 1440 min
[4] = cytokine-stimulated NHEK, JAK inhibitor I 10 μM
[5] = cytokine-stimulated NHEK, JAK inhibitor I 10 μM, listed as JAK Inhibitor I

CC(C)(C)c1nc2c3cc[nH]c(=O)c3c3cc(F)ccc3c2[nH]1 [JAK inhibitor I]
SPRR1B gene expression [1, 2]: 557 % control | SULT2B1 gene expression [1, 2]: 231 % control | CASP14 gene expression [1, 3]: 199 % control | CCL5 gene expression [1, 3]: 23 % control | CCL27 gene expression [1, 3]: 72 % control | IL13RA2 gene expression [1, 3]: 12 % control | IVL gene expression [1, 3]: 986 % control | KLK7 gene expression [1, 3]: 146 % control | S100A7 gene expression [1, 3]: 94 % control | SCEL gene expression [1, 3]: 141 % control | SERPINB13 gene expression [1, 3]: 27 % control | TLR2 gene expression [1, 3]: 21 % control | expression of antimicrobial and innate immunity markers (in words) [1, 4]: decrease | expression of inflammation markers (in words) [1, 4]: decrease | expression of keratinocyte differentiation markers (in words) [1, 4]: increase | expression of antimicrobial and innate immunity markers (in words) [1, 5]: down-regulating | expression of inflammation markers (in words) [1, 5]: down-regulating

CC1(C)S[C@@H]2[C@H](NC(=O)[C@H](N)c3ccc(O)cc3)C(=O)N2[C@H]1C(=O)O [amoxicillin]
sensitivity of the bacterial strain to the antibiotic (bacterial strain LMB275; disc 30 μg): resistant

CC1(C)S[C@@H]2[C@H](NC(=O)[C@H](N)c3ccccc3)C(=O)N2[C@H]1C(=O)O [ampicillin]
sensitivity of the bacterial strain to the antibiotic (bacterial strain LMB275; disc 10 μg): resistant

CO/N=C(\C(=O)N[C@@H]1C(=O)N2C(C(=O)O)=C(COC(C)=O)CS[C@H]12)c1csc(N)n1 [cefotaxim]
sensitivity of the bacterial strain to the antibiotic (bacterial strain LMB275; disc 30 μg): resistant

O=C(N[C@H](CO)[C@H](O)c1ccc([N+](=O)[O-])cc1)C(Cl)Cl [chloramphenicol]
sensitivity of the bacterial strain to the antibiotic (bacterial strain LMB275; disc 30 μg): sensitive

O=C(O)c1cn(C2CC2)c2cc(N3CCNCC3)c(F)cc2c1=O [ciprofloxacin]
sensitivity of the bacterial strain to the antibiotic (bacterial strain LMB275; disc 5 μg): sensitive

CC[C@H]1OC(=O)[C@H](C)[C@@H](O[C@H]2C[C@@](C)(OC)[C@@H](O)[C@H](C)O2)[C@H](C)[C@@H](O[C@@H]2O[C@H](C)C[C@H](N(C)C)[C@H]2O)[C@](C)(O)C[C@@H](C)C(=O)[C@H](C)[C@@H](O)[C@]1(C)O [erythromycin]
sensitivity of the bacterial strain to the antibiotic (bacterial strain LMB275; disc 15 μg): sensitive

C[C@@H](O)[C@H]1C(=O)N2C(C(=O)O)=C(SCCN=CN)C[C@H]12 [imipenem]
sensitivity of the bacterial strain to the antibiotic (bacterial strain LMB275; disc 10 μg): sensitive

NC[C@H]1O[C@H](O[C@H]2[C@H](O)[C@@H](O[C@H]3O[C@H](CO)[C@@H](O)[C@H](N)[C@H]3O)[C@H](N)C[C@@H]2N)[C@H](O)[C@@H](O)[C@@H]1O [kanamycin]
sensitivity of the bacterial strain to the antibiotic (bacterial strain LMB275; disc 30 μg): sensitive

CC1COc2c(N3CCN(C)CC3)c(F)cc3c(=O)c(C(=O)O)cn1c23 (centres unmarked) [ofloxacin]
sensitivity of the bacterial strain to the antibiotic (bacterial strain LMB275; disc 5 μg): sensitive

CC1(C)S[C@@H]2[C@H](NC(=O)Cc3ccccc3)C(=O)N2[C@H]1C(=O)O [penicillin]
sensitivity of the bacterial strain to the antibiotic (bacterial strain LMB275; disc 10 UI): resistant

CO[C@H]1/C=C/O[C@@]2(C)Oc3c(C)c(O)c4c(O)c(c(/C=N/N5CCN(C)CC5)c(O)c4c3C2=O)NC(=O)/C(C)=C\C=C\[C@H](C)[C@H](O)[C@@H](C)[C@@H](O)[C@@H](C)[C@H](OC(C)=O)[C@@H]1C [rifampicin]
sensitivity of the bacterial strain to the antibiotic (bacterial strain LMB275; disc 30 μg): sensitive

[H]/N=C(/N)N[C@H]1[C@H](O)[C@@H](O)[C@H](O[C@@H]2O[C@@H](C)[C@](O)(C=O)[C@H]2O[C@@H]2O[C@@H](CO)[C@H](O)[C@@H](O)[C@@H]2NC)[C@@H](N/C(N)=N\[H])[C@@H]1O [streptomycin]
sensitivity of the bacterial strain to the antibiotic (bacterial strain LMB275; disc 10 μg): sensitive

CN(C)[C@@H]1C(=O)C(C(N)=O)=C(O)[C@@]2(O)C(=O)C3=C(O)c4c(O)cccc4[C@@](C)(O)[C@H]3C[C@@H]12 [tetracyclin]
sensitivity of the bacterial strain to the antibiotic (bacterial strain LMB275; disc 30 μg): sensitive

CN[C@H](CC(C)C)C(=O)N[C@H]1C(=O)N[C@@H](CC(N)=O)C(=O)N[C@H]2C(=O)N[C@H]3C(=O)N[C@H](C(=O)N[C@H](C(=O)O)c4cc(O)cc(O)c4-c4cc3ccc4O)[C@H](O)c3ccc(c(Cl)c3)Oc3cc2cc(c3O[C@@H]2O[C@H](CO)[C@@H](O)[C@H](O)[C@H]2O[C@H]2C[C@](C)(N)[C@H](O)[C@H](C)O2)Oc2ccc(cc2Cl)[C@H]1O [vancomycin]
sensitivity of the bacterial strain to the antibiotic (bacterial strain LMB275; disc 30 μg): sensitive

polymixin B
sensitivity of the bacterial strain to the antibiotic (bacterial strain LMB275; disc 300 UI): resistant
